In general, melting point refers to the temperature, or range, at which the solid turns liquid. `COC(=O)c1ccc2c(c1)c1cc(-c3ccc(CN4CCOCC4)cc3)c(=O)n(C)c1n2C` displayed a melting point of 175 °C.
Next, `O=C(NCC1CCCCCC1)c1cc(-c2cccnc2C(=O)O)ccc1Cl`: 166 to 168 °C; `CCOC(=O)c1c(CN(CC)CC)nc2sc(C)c(C)c2c1-c1ccc(OC)c(OC)c1`: 110 to 111 °C.
`CCCc1nc(-c2cccnc2)cnc1Cl` yielded a melting point of 207 to 209 °C.
`O=C(NCc1ccccc1)c1ccnc(-n2ccc(-c3ccccc3)cc2=O)c1` showed a melting point of 162 to 163 °C.
Next, `COc1ccc(C(=O)C(=O)c2ccc(-c3ccc(F)cc3)s2)cc1C`: 165 °C.
In turn, `N#Cc1cc2c(c3ccc(=O)[nH]c13)OC(CN=[N+]=[N-])C2` (stereo not drawn) yielded a melting point of 213 to 215 °C.
`CC(=O)Oc1cc2ccccc2cc1C(N)=O` came in with a melting point of 201 to 202 °C.
As to `O=[N+]([O-])c1ccc(F)c(-c2cccnc2)c1F`, the melting point is 68 to 70 °C.
Next, `Nc1nc(N)nc(-c2cccc(S(N)(=O)=O)c2)n1`: more than 290 °C; `Cc1cc(=O)n2cccc(OCc3ccccc3C(F)(F)F)c2n1`: 130 to 132 °C; `Cc1c(NC(=O)c2cccc(OCC(=O)OC(C)(C)C)c2)c2ccccn2c1C(=O)c1ccc(NC(=O)C(F)(F)F)c(C(=O)OCc2ccccc2)c1`: 200 °C.
`O=C1NCCN1CCN1CC=C(c2cn(-c3ccc(F)cc3)c3ccc(C(F)(F)F)cc23)CC1`: the melting point was 200 °C.
The molecule `O=[N+]([O-])c1ccc(-c2ccc(-c3cn([C@H]4CN5CCC4CC5)nn3)s2)cn1` yielded a melting point of 160 °C.
Take `O=C(Nc1cccc([N+](=O)[O-])c1)c1cccnc1Oc1cccc(C(F)(F)F)c1`: the melting point fell in the range of 90 to 95 °C.
`COc1cc(NC(C)=O)c(Cl)cc1C(=O)NN1CCN(Cc2ccccc2)CC1` displayed a melting point of 185 °C.
Take `CCCN(CC)C1(c2ccccc2)c2ccccc2OC1[N+](=O)[O-]` (stereo not drawn): the melting point was 99 to 100 °C.
Under `O=C(Nc1nc(-c2ccccc2)cs1)c1ccccc1C(c1ccc(O)cc1)c1ccc(O)cc1` stands 291 to 292 °C; under `CC(C)(C)OC(=O)NNc1ccc(N)cc1`, 128 °C.
As to `CCCCSc1nc(N)c(C(=O)c2ccccc2)s1`, the melting point is 91 to 94 °C.
As to `CCCCCC(=O)C=Cc1ccc(Cl)cc1`, the melting point is 44 to 47 °C.
Next, `CCOC(=O)Cc1ccc(NC(=O)c2cc(Cl)ccc2OC)cc1`: 104 °C; `Cn1c(C(F)(F)F)cc(=O)n(-c2cc(OCCC3OCCCO3)c(Cl)cc2F)c1=O`: 128 to 130 °C.
As to `COC(=O)C(=O)c1cn(CCO)c2ccc(OCc3ccccc3)cc12`, the melting point is 148 to 150 °C.
Regarding `Cn1ccc2ccc(O)cc21`, the melting point stood at 74 °C.
Under `Oc1ccc(CCc2nc(-c3cccs3)c[nH]2)cc1` stands 166 to 167 °C; under `NC(Cc1cccc2c(Cl)cccc12)=NO`, 121 to 125 °C.
In the case of `Cn1cc(S(C)=O)c(=O)c2scc(-c3ccccc3)c21` (stereo not drawn), the melting point is 206 to 209 °C.
Regarding `CC(/C=C/c1ccccc1)=C\C(=O)NCCCCCC(=O)NO`, the melting point is 147 to 149 °C.
Take `O=c1c(Cl)cc2nc3ccc(F)cc3sc-2c1Cl`: the melting point lay within 256 to 258 °C.
In turn, `COc1ccc(Cc2nc3n(c2Cc2ccc(OC)cc2)CCS3)cc1` returned a melting point of 154 to 156 °C.
Consider `CSc1ccc(-c2coc3ccc(-c4nnc(N)o4)cc23)cc1`, for which the melting point was 255 to 256 °C.
As to `O=C(O)COc1cc(C(=O)O)nc2ccc(Cl)cc12`, the melting point was 260 °C.
In the case of `CC(=O)On1cc(-c2ccccc2)c(=O)c(-c2cccc(C(F)(F)F)c2)c1`, the melting point fell in the range of 232 to 235 °C.
In the case of `COc1ccc2c(c1)N(CC(=O)O)C(=O)C(N=[N+]=[N-])CC2` (stereo not drawn), the melting point lay in the range of 145 to 147 °C.
For `Nc1nc(=Nc2ccccc2)n2c(n1)sc1ccccc12`, the melting point was more than 250 °C.
As for `CCCn1c(=O)c2[nH]c(/C=C/c3cc(OC)c(OC)c(OC)c3)nc2n(CCC)c1=O`, the melting point fell in the range of 162 to 163 °C.
Molecule `Cn1nc(C2CCN(CCn3c(=O)[nH]c4ccccc4c3=O)CC2)c2ccc(F)cc21` registered a melting point of 250 °C.
Next, `CCn1nc(C(=O)NC2CN(C)CCN(Cc3ccccc3)C2)c2ccccc21` (stereo not drawn): 135 to 137 °C; `Cc1cccc(-c2n[nH]cc2-c2ccc(F)c(-c3ccc(S(=O)(=O)C(F)F)cc3)c2)n1`: 80 to 82 °C; `Oc1cccc(C#Cc2ccc(C(F)(F)F)cc2)c1`: 131 to 132 °C.
`CN(C)CCN1CCC(O)(c2ccccc2)C(C(O)c2ccccc2)C1` (stereo not drawn) displayed a melting point of 157 to 158 °C.
The molecule `Cc1cc(C(=N)N)ccc1N1CCN(c2ccc(CCC(=O)O)cc2)C1=O` came in with a melting point of more than 270 °C.
Next, `Cn1cc(C(=O)O)c(=O)c2c3ccc(F)c(N4CCN(c5cccc(C(F)(F)F)c5)CC4)c3ncc21`: 261 °C; `CC(=O)Nc1ncc(-c2ccc(=O)n(C(C)C)n2)c(-c2ccccc2)n1`: 209 to 210 °C; `O=C(O)COc1ccc2cc(-c3oc4ccccc4c3-c3ccccc3)ccc2c1-c1ccccc1`: 202 to 203 °C.
For `CCOC(=O)c1cccc(S(=O)(=O)NC(=O)Nc2nc(C)nc(OC)n2)c1I`, the melting point is 177 to 179 °C.
`O=C(OC(c1ccccc1)c1ccccc1)C1=CCC2CC(=O)C12` (stereo not drawn): the melting point was in the range of 115 to 116 °C.
With `CCOC(Nc1ccccc1)(OCC)c1ccnc(C(=O)c2ccccc2)c1`, the melting point lay in the range of 114 to 115 °C.
For `COC(=O)[C@H]1CC[C@H](n2ccn(-c3ccc(C4(C)CCN(C(=O)C(F)(F)F)CC4)cc3)c2=O)CC1`, the melting point is 182 to 184 °C.
Molecule `COC(=O)CCCC#Cc1cc(Cl)ccc1NS(=O)(=O)c1cc(OC)ccc1OC` yielded a melting point of 115 to 117 °C.
For `CCOc1nsnc1O`, the melting point is 104 to 106 °C.
Under `CC(C)N1C(=O)C(=O)N(c2cc(Cl)cc(Cl)c2)S1=O` (stereo not drawn) stands 109 °C.
Next, `CCN(CC)c1nc(NC(N)=NOC)nc(OC)n1`: 112 °C.
Consider `COc1ccc2c3c1OC1C(=O)CC(C)C4(OC)C(C2)N(C)CCC314` (stereo not drawn), for which the melting point was in the range of 204 to 205 °C.
Molecule `COC(=O)COc1ccc([N+](=O)[O-])c(F)c1` gave a melting point of 93 to 94 °C.
The molecule `CCNc1ncc(S(=O)(=O)NCC)cc1[N+](=O)[O-]` yielded a melting point of 153 to 155 °C.
The molecule `COc1cc2c(=O)c3c(Cl)ccc([N+](=O)[O-])c3[nH]c2cc1Cl` displayed a melting point of 284 to 285 °C.
For `Cc1noc(C)c1C(=O)Nc1ccc(-n2nc(C(F)(F)F)cc2C(F)(F)F)cc1`, the melting point was 179 to 180 °C.
On to `CCn1ncc(C(=O)c2ccc(S(C)(=O)=O)c(-n3nc(C)cc3C)c2Cl)c1O`, for which the melting point was in the range of 217 to 218 °C.
Consider `O=C1Nc2cccnc2N(C(=O)NCCN2CCCC(CN3CCCCCC3)C2)c2ccccc21` (stereo not drawn), for which the melting point fell in the range of 135 to 137 °C.
`COc1ccc(-c2nnc3c4ccccc4c(Nc4ccc(-c5nnn(C)n5)cc4)nn23)cc1` had a melting point of 289 to 293 °C.
`COc1ccc(CSc2ccc([N+](=O)[O-])cc2CBr)cc1` registered a melting point of 98 to 99 °C.
In the case of `COc1ccc(N=C(CCc2ccccc2Cl)c2ccccc2)cc1`, the melting point lay within 83.5 to 84.5 °C.
Next, `COc1cc(Nc2c(C#N)cnc3cc(-c4ccc(CN5CCC[C@@H]5C(N)=O)o4)ccc23)c(Cl)cc1Cl`: 121 to 126 °C; `CC/C=C\CCCCCCCCCCOc1ccc(C(=O)O)o1`: 89 to 90 °C; `CC(=O)Nc1ccc(S(=O)(=O)O)c(NCC(=O)O)c1`: 234 to 235 °C.
In turn, `Clc1nccc(-n2ccc3c(SCc4ccccc4)cccc32)n1` came in with a melting point of 159 to 161 °C.
In turn, `COC(=O)CCCC=C(c1cc(C)c2oc(=O)n(C)c2c1)c1cc(C)c2oc(=O)n(C)c2c1` yielded a melting point of 164 to 165 °C.
Next, `CCOC1CCN(c2nnc(-c3ccc(C)cc3)c(-c3ccc(C)cc3)n2)CC1`: 124 to 126 °C; `NC(=O)c1ccc(NC(=NC(=O)c2cccc(Br)c2)NC(=O)c2ccccc2)cc1`: 282 to 283 °C.
Molecule `CCOCCc1c(-c2ccccc2)nc(Br)n2ncnc12` gave a melting point of 159 to 160 °C.
Regarding `CC(Oc1ccc(C(F)(F)F)cc1)c1ccnc2ncnn12` (stereo not drawn), the melting point fell in the range of 100 to 102 °C.
`Cn1nc(-c2ccc(F)cc2)c(-c2ccncc2)c1Br` gave a melting point of 174 °C.
With `COc1c(-c2cc3c(s2)CCCC3=O)ccc2c(=O)c(C(=O)O)cn(C3CC3)c12`, the melting point was 266 to 267 °C.
The molecule `CCc1cc(-c2cc(-c3ccc(C(=O)O)cc3)ccc2OCCO)ccc1N(CC)CC` gave a melting point of 206 °C.
Molecule `CCCCc1nnc(-c2ccco2)n1Cc1ccc([N+](=O)[O-])cc1` had a melting point of 91 to 92.5 °C.
`COc1ccc2c(c1)C(CC#N)=CCC2` yielded a melting point of 48 to 50 °C.
Under `Cc1ccc(S(=O)(=O)OCCCC2(C)NC(=O)NC2=O)cc1` (stereo not drawn) stands 126 to 127 °C.
Next, `O=C1NC(=O)C(Sc2ccccn2)=C1Sc1ccccn1`: 70 to 72 °C; `CCCNc1nc(=O)c(C)cn1C1CC(N=[N+]=[N-])C(CO)O1` (stereo not drawn): 146 °C; `O=C(O)CCNC(=O)c1ccc(N(Cc2ccc(C3=CCCCC3)cc2)C(=O)C=Cc2cccc(OC(F)(F)F)c2)cc1`: 178 to 180 °C.
In turn, `COc1ccc(C=NNC(=O)COc2ccc(C3=NNC(=O)CC3)cc2Cl)cc1` registered a melting point of 220 to 222 °C.
`COC(=O)c1ccccc1C(=O)OCC1CN(C(=O)Oc2ccccc2)CCC1c1ccc(F)cc1` (stereo not drawn) returned a melting point of 139 to 141 °C.
`CC(C)(C)NC(=O)c1ncc[nH]1`: the melting point was found to be 134 °C.
With `OC1c2ccccc2-c2nc(-c3ccc(Cl)cc3Cl)ncc21` (stereo not drawn), the melting point was determined as 188 °C.
Molecule `CCCCCCCCCCCCCCCCNC(=O)c1cc(OCCS(C)(=O)=O)c2ccccc2c1O` registered a melting point of 107 to 109 °C.
In the case of `O=C(O)C=CC(=O)NCCC(=O)O`, the melting point lay in the range of 150 to 152 °C.

(Values after a melting point compilation (Tetko et al.; mined from patent text by program, amines drawn as free bases though some values may be those of a salt).)
